Consider 13 compounds from patent US8188272B2, “Fused heterocyclic compounds useful as kinase modulators” (Bristol-Myers Squibb Company, priority 2007, dated 2012).

Broadly, the IC50 is the concentration that inhibits the measured activity by half.

T1 sequence (Q06187 whole entry): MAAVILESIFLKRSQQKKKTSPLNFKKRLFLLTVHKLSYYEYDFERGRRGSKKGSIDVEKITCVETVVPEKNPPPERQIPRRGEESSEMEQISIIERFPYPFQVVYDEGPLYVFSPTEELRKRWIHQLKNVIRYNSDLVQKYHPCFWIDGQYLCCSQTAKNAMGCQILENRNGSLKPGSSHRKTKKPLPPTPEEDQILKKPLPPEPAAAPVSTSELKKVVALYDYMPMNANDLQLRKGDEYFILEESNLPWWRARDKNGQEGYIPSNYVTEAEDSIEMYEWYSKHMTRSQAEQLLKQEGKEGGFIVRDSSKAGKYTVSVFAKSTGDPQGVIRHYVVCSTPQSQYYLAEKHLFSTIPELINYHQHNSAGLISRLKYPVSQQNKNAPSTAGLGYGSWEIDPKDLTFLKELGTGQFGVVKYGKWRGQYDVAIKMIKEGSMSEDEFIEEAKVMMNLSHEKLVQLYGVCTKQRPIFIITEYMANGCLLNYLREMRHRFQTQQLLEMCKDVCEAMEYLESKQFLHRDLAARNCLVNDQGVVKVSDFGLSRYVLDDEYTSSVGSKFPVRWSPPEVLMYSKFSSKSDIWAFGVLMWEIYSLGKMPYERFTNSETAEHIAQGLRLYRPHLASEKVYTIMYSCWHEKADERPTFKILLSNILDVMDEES

The first experiment addresses T1, human recombinant Btk (Homo sapiens, UniProt Q06187).
T1 construct: purchased Invitrogen Corporation
Nature of the experiment: Human Recombinant Btk Enzyme Assay. To be noted: human recombinant Btk 1 nM, ATP 20 μM, 60 min room temperature, Caliper LabChip. It is filed as biochemical. The protocol:
Human Recombinant Btk Enzyme Assay
To V-bottom 384-well plates were added test compounds, human recombinant Btk (1 nM, Invitrogen Corporation), fluoresceinated peptide (1.5 μM), ATP (20 μM), and assay buffer (20 mM HEPES pH 7.4, 10 mM MgCl2, 0.015% Brij35 and 4 mM DTT in 1.6% DMSO), with a final volume of 30 μL. After incubating at room temperature for 60 min, the reaction was terminated by adding 45 μl of 35 mM EDTA to each sample. The reaction mixture was analyzed on the Caliper LabChip 3000 (Caliper, Hopkinton, Mass.) by electrophoretic separation of the fluorescent substrate and phosphorylated product. Inhibition data were calculated by comparison to no enzyme control reactions for 100% inhibition and no inhibitor controls for 0% inhibition. Dose response curves were generated to determine the concentration required inhibiting 50% of kinase activity (IC50). Compounds were dissolved at 10 mM in dimethylsulfoxide (DMSO) and evaluated at eleven concentrations.
Using this assay, the following IC50 values derived by non-linear regression analysis were determined and compared to those values of certain compounds in US 2007/0078136 and US 2008/0045536.
As for `O=C(N[C@@H]1CCCN(c2nc(Nc3ccc(C(=O)N4CCOCC4)cc3)c3nccn3n2)C1)OCc1ccccc1` [Example 4, (R)-Benzyl 1-(4-(4-(morpholine-4-carbonyl)phenylamino)imidazo[1,2-f][1,2,4]triazin-2-yl)piperidin-3-ylcarbamate], the IC50 worked out at 0.2 µM. On the same count and under the same terms, next, `CC(C)(C)c1ccc(C(=O)N[C@@H]2CCCN(c3nc(Nc4ccc(C(=O)N5CC(O)C5)cc4)c4nccn4n3)C2)cc1` [Example 20]: 0.081 µM; `Nc1cnc2c(Nc3ccc(C(=O)N4CCOCC4)cc3)nc(N3CCC[C@@H](NC(=O)c4cc5ccccc5[nH]4)C3)nn12` [Example 28, (R)—N-(1-(7-Amino-4-(4-(morpholine-4-carbonyl)phenylamino)imidazo[1,2-f][1,2,4]triazin-2-yl)piperidin-3-yl)-1H-indole-2-carboxamide]: 0.014 µM. On to `CC(C)(C)c1ccc(C(=O)N[C@@H]2CCCN(c3nc(Nc4ccc(C(=O)N5CCOCC5)cc4)c4ncc(C#N)n4n3)C2)cc1` [Example 32, (R)-4-tert-Butyl-N-(1-(7-cyano-4-(4-(morpholine-4-carbonyl)phenylamino)imidazo[1,2-f][1,2,4]triazin-2-yl)piperidin-3-yl)benzamide], for which the IC50 was 0.1 µM. For the compound `N[C@H]1CC[C@H](Nc2cc(Nc3ccc4ccccc4n3)c3nccn3n2)CC1` [I(159) in US 2008/0045536, reference compound], the IC50 worked out at 0.228 µM. Same read-out and setting: next, `Cc1c(N[C@H]2CC[C@H](N)CC2)nn2ccnc2c1Nc1ccc(C(=O)N2CCOCC2)cc1` [III(18) in US 2008/0045536, reference compound]: above 50 µM; `O=C(c1ccc(Nc2cc(N[C@H]3CCCNC3)nn3ccnc23)cc1)N1CCOCC1` [V(10) in US 2008/0045536, reference compound]: 1.96 µM; `CCOc1ccc(Nc2nc(N[C@H]3CC[C@H](N)CC3)nn3ccnc23)cc1` [XIII in US 2007/0078136, reference compound]: 1.76 µM.

The next experiment concerns Mouse splenic B cells. Nature of the experiment: Mouse Splenic B Cell Proliferation Assay. It is filed as cell-based. To be noted: Balb/c splenic B cells stimulated with anti-mouse IgG IgM F(ab')2 10 μg/ml, 72 hours, 3[H]-thymidine. As for the experimental part: Mouse Splenic B Cell Proliferation Assay
Spleens from Balb/c mice (<12 weeks old) were mashed through screens and red blood cells were removed from splenocytes with RBC lysing buffer (Sigma-Aldrich Chemical Co, —St. Louis, Mo.). T cells were depleted by incubation on nylon wool columns (Wako, Richmond, Va.). Resulting splenic B cells prepared this way were routinely >90% CD19^+ as measured by FACS analysis. B cells (1×10^5 cells per well) were added to serial dilutions of compounds in triplicate in 96-well flat-bottom plates in RPMI 1640 (Invitrogen, Grand Island, N.Y.), supplemented with 10% heat-inactivated fetal calf serum (FCS, Summit Biotechnology, Fort Collins, Colo.), containing 1% L-glutamine (Invitrogen), […] gentamicin (Invitrogen) and 5×10^−5M β-mercaptoethanol (Sigma-Aldrich). Cells were stimulated with 10 μg/ml of Affinipure F(ab′)2 fragment goat anti-mouse IgG IgM (Jackson Immunoresearch, West Grove, Pa.). Cultures were incubated for 72 hours, and pulsed for the last 6 hours with one μCi/well of ^3[H]-thymidine (PerkinElmer, Boston, Mass.) prior to harvest on a Packard cell harvester (PerkinElmer), and counted by liquid scintillation on a Packard TopCount NXT (PerkinElmer).
As for `CC(C)(C)c1ccc(C(=O)N[C@@H]2CCCN(c3nc(Nc4ccc(C(N)=O)cc4)c4nccn4n3)C2)cc1` [Example 10, (R)-4-tert-Butyl-N-(1-(4-(4-carbamoylphenylamino)imidazo[1,2-f][1,2,4]triazin-2-yl)piperidin-3-yl)benzamide], half-maximal inhibition (IC50) required 0.33 µM. In the case of `NC(=O)c1cnc2c(Nc3ccc(C(=O)N4CCOCC4)cc3)nc(N3CCC[C@@H](NC(=O)c4ccccc4)C3)nn12` [Example 30, (R)-2-(3-Benzamidopiperidin-1-yl)-4-(4-(morpholine-4-carbonyl)phenylamino)imidazo[1,2-f][1,2,4]-triazine-7-carboxamide], the IC50 worked out at 0.98 µM.

In turn, `CC(C)(C)c1ccc(C(=O)N[C@@H]2CCCN(c3nc(Nc4ccc(C(=O)N5CCOCC5)cc4)c4ncc(C#N)n4n3)C2)cc1` [Example 32, (R)-4-tert-Butyl-N-(1-(7-cyano-4-(4-(morpholine-4-carbonyl)phenylamino)imidazo[1,2-f][1,2,4]triazin-2-yl)piperidin-3-yl)benzamide] had a 50% inhibitory concentration (IC50) of 0.31 µM.

The next experiment deals with Human tonsillar B cells. The experiment in a line: Human Tonsillar B Cell Proliferation Assay. To be noted: tonsillar B cells stimulated with anti Human IgG+IgM F(ab')2 40 μg/ml, 72 hours, 3[H]-thymidine. It is filed as cell-based. From the text: Human Tonsillar B Cell Proliferation Assay
Tonsils were excised from patients undergoing routine tonsillectomy. Tonsil tissue was minced, mashed through screens and mononuclear cells were isolated on ficoll density gradients (Lymphocyte Separation Media; Mediatech Inc., Herndon, Va.). T cells were depleted from mononuclear cells by rosetting with sheep red blood cells (SRBC, Colorado Serum Company; Denver, Colo.). Tonsillar B cells prepared by this method were routinely >95% CD19^+ as measured by FACS analysis. B cells (1×10^5 cells per well) were added to serial dilutions of compounds in triplicate in 96-well flat-bottom plates in RPMI 1640, (Invitrogen, Grand Island, N.Y.), supplemented with 10% heat-inactivated fetal calf serum (FCS, Summit Biotechnology, Fort Collins, Colo.), and containing antibiotic/antimycotic (Invitrogen, 1:100 dilution) and gentamicin (Invitrogen, 5 μg/ml). Cells were stimulated with 40 μg/ml AffinPure F(ab′)2 Fragment Goat anti Human IgG+IgM (Jackson Immunoresearch, West Grove, Pa.) in a total volume of 0.2 ml. Cultures were incubated for 72 hours, and pulsed for the last 6 hours with one μCi/well of ^3[H]-thymidine (PerkinElmer, Boston, Mass.) prior to harvest on a Packard cell harvester (PerkinElmer), and counted by liquid scintillation on a Packard TopCount NXT (PerkinElmer).
In turn, `CN1CCN(C(=O)c2ccc(Nc3nc(N4CCC[C@@H](NC(=O)c5ccc(C(C)(C)C)cc5)C4)nn4ccnc34)cc2)CC1` [Example 5, (R)-4-tert-Butyl-N-(1-(4-(4-(4-methylpiperazine-1-carbonyl)phenylamino)imidazo[1,2-f][1,2,4]triazin-2-yl)piperidin-3-yl)benzamide] displayed an IC50 of 0.037 µM. The same measure, in the same setting: next, `CC(C)(C)c1ccc(C(=O)N[C@@H]2CCCN(c3nc(Nc4ccc(C(=O)N5CCN(CCO)CC5)cc4)c4nccn4n3)C2)cc1` [Example 6, (R)-4-tert-Butyl-N-(1-(4-(4-(4-(2-hydroxyethyl)piperazine-1-carbonyl)phenylamino)imidazo[1,2-f][1,2,4]triazin-2-yl)piperidin-3-yl)benzamide]: 0.17 µM; `CC(C)(C)c1ccc(C(=O)N[C@@H]2CCCN(c3nc(Nc4ccc(C(=O)N[C@H]5CCNC5)cc4)c4nccn4n3)C2)cc1` [Example 12, 4-tert-Butyl-N—((R)-1-(4-(4-((R)-pyrrolidin-3-ylcarbamoyl)phenylamino)imidazo[1,2-f][1,2,4]triazin-2-yl)piperidin-3-yl)benzamide]: 1.58 µM.
